Data taken from patent US20070167432A1, “Tricyclic triazolobenzapine derivative produced as novel crystalline substance” (MEIJI SEILA KAISHA, LTD, priority 2003, published 2007).

Legend:
[1] = Solubility test in water (37° C.), Compound A concentration of filtrate by HPLC; assay type: physicochemical
Protocol: By using, as test samples, the β-type crystalline material obtained in Example 1 and the α-type crystalline material obtained in Comparative Example 1, a water (37° C.) solubility test was carried out. The test sample (about 10 mg) was added to 100 mL of water (37° C.), and the mixture was stirred at 1000 rpm. The mixture was sampled at some points of time, and each sample taken out was filtered through a membrane filter (Millex LG-13 manufactured by Millipore Corp, Japan). The compound A concentration of each filtrate was determined with high-performance liquid chromatography (HPLC). The measurement conditions were as follows:
HPLC: LC-10vp series (manufactured by Shimadzu Corp. Japan)
System controller: CBM-10A
Measurement wavelength: 246 nm
Column: Mightysil RP-18 GP 4.6×250 mm (manufactured by Kanto Chemical Co., Inc., Japan)
Column temperature: Fixed temperature at around 40° C.
Mobile phase: Mixture of methanol and water (55:45)
Amount of influent: 10 μL
Internal standard solution: Acetonitrile solution of propyl paraoxybenzoate (conc.200 μg/mL)

[2] = Absorbability test: oral administration to cynomolgus monkeys, Compound B in blood plasma as indicator; assay type: in vivo
Protocol: The α-type crystalline material obtained in Comparative Example 1 or the β-type crystalline material obtained in Example 1 was suspended in a 1 wt. % aqueous solution of methyl cellulose. Each suspension was orally administered to a group of cynomolgus monkeys that had not been fed one overnight (5 mg/kg, n=5). The two samples were compared, in terms of the change of Compound B concentration of blood plasma and the area under the medicine concentration in blood plasma-time curve (AUC), to evaluate the difference in absorbability between the samples. The Compound B concentration of blood plasma derived from the blood sample was determined in the following manner.
By centrifugally separating the blood (1 mL) taken from a saphenous vein (4° C., 3000 rpm, 10 minutes) in the presence of heparin, blood plasma was obtained. To this blood plasma (100 μL), a methanol solution containing an internal standard substance (sodium 7-methyl-4(5H),10-dioxo-2H-1,2,3-triazolo [4,5-c][1]benzazepine) (100 ng/mL, 100 μL) and methanol (400 μL) were added, and the mixture was stirred and was then subjected to centrifugal separation (4° C., 10000 rpm, 5 minutes). Methanol (300 μL) was added again to the supernatant, and the mixture was centrifugally separated under the same conditions as the previous manner. […]
Fluorescence detection wavelengths: Ex 270 nm, Em 466 nm […]

| water solubility compared with the α-type crystalline material ([1]; water 37° C.) | Compound B concentration of blood plasma compared with the α-type-crystalline-material-administered group ([2]; cynomolgus monkeys, fasted overnight, oral 5 mg/kg, suspension in 1 wt. % aqueous methyl cellulose, n=5, FIG. 6) | solubility in solvents such as water ([1]; background statement from applicant's experiments, solvents such as water) | absorption into organisms ([2]; background statement, administered as it is) | SMILES |
| --- | --- | --- | --- | --- |
| higher | higher values | – | – | COc1cc2[nH]c(=O)c3nn(C(OC(=O)OC(C)C)C(C)C)nc3c(=O)c2cc1OC (stereo not drawn) [β-type crystalline material, 2-(1-Isopropoxycarbonyloxy-2-methylpropyl)-7,8-dimethoxy-4(5H),10-dioxo-2H-1,2,3-triazolo[4,5-c][1]benzazepine] |
| – | – | sparingly soluble | cannot be easily absorbed | COc1cc2[nH]c(=O)c3nn(C(OC(=O)OC(C)C)C(C)C)nc3c(=O)c2cc1OC (stereo not drawn) [α-type crystalline material, 2-(1-Isopropoxycarbonyloxy-2-methylpropyl)-7,8-dimethoxy-4(5H),10-dioxo-2H-1,2,3-triazolo[4,5-c][1]benzazepine] |
